The term melting point denotes the temperature of the solid-liquid transition. In the case of `CSc1nc(-c2cc(C(=O)N(C)C)ccc2C)c2c(n1)N(c1c(F)cccc1F)C(=O)NC2` [Example 73, 3-[8-(2,6-difluorophenyl)-2-(methylthio)-7-oxo-5,6,7,8-tetrahydropyrimido[4,5-d]pyrimidin-4-yl]-N,N,4-trimethylbenzamide], the melting point was in the range of 144 to 147 °C.
As for `Cc1c(F)cc(C(=O)NC2CC2)cc1-c1nc(NC(CO)CO)nc2c1ccc(=O)n2-c1c(F)cccc1F` [Example 49, N-cyclopropyl-3-(8-(2,6-difluorophenyl)-2-{[2-hydroxy-1-(hydroxymethyl)ethyl]amino}-7-oxo-7,8-dihydropyrido[2,3-d]pyrimidin-4-yl)-5-fluoro-4-methylbenzamide], the figure is 214.2 to 217.5 °C.

For the origin of these results see patent US20080096905A1, “Process For Preparing Pyrido[2,3-D]Pyrimidin-7-One And 3,4-Dihydropyrimido{4,5-D}Pyrimidin-2(1H)-One Derivatives” (Glaxo Group Limited, priority 2005, published 2008).
